# Data published in US20050002862A1, “Biological markers for evaluating therapeutic treatment of inflammatory and autoimmune disorders” (priority 2000, published 2005).
# Experiments:
# Assay type in all cases: in vivo, human
# [1] = tested on: CD89 expression on granulocytes; assay: CD89 expression on granulocytes in blood, microvolume laser scanning cytometry, before/after oral prednisone; settings: after three days of oral prednisone, adjusted p-value < 0.001
# Source text: (§1) The inventive biomarkers were identified in a study of the effects of oral prednisone on biological markers of allergy and asthma. Eighty subjects were enrolled in the study, 23 with atopic asthma, 28 with allergy alone, 26 with neither allergy nor asthma (healthy controls), and 3 with asthma alone. Allergy was defined by a positive skin prick test. Mild asthma was defined as positive methacholine challenge within the last three months, as well as one or more of documented diagnosis of asthma, history of cough, recurrent wheeze, recurrent difficult breathing, and recurrent chest tightening. […] Cellular markers in the blood samples were evaluated using the SurroScan™ microvolume laser scanning cytometry system for multiparameter cellular analysis. […] In addition, the relative levels of 49 different cell surface antigens (activation antigens, co-stimulatory molecules, adhesion molecules, antigen receptors, cytokine receptors) on specific cell populations were measured. […] Each fluorophore was measured in a separate detection channel, and images were converted to flow cytometry standard format and analyzed with FlowJo™ cytometry analysis software. […] Following data acquisition, variables were analyzed to assess differences in subject groups before drug administration, as well as changes following drug administration. […]
# [2] = tested on: CD38 expression on CD4 T cells; assay: CD38 expression on CD4 T cells in blood, cytometry, before/after oral prednisone; settings: after three days of oral prednisone; all disease groups; mean pre drug 32.9 (9.8); adjusted p-value < 0.001
# Source text: as §1
# [3] = tested on: HLA class II expression on B cells; assay: HLA class II expression on B cells in blood, cytometry, before/after oral prednisone; settings: after three days of oral prednisone, all disease groups, adjusted p-value < 0.001
# Source text: The inventive biomarkers were identified in a study of the effects of oral prednisone on biological markers of allergy and asthma. Eighty subjects were enrolled in the study, 23 with atopic asthma, 28 with allergy alone, 26 with neither allergy nor asthma (healthy controls), and 3 with asthma alone. Allergy was defined by a positive skin prick test. Mild asthma was defined as positive methacholine challenge within the last three months, as well as one or more of documented diagnosis of asthma, history of cough, recurrent wheeze, recurrent difficult breathing, and recurrent chest tightening. Approximately half of the subjects from each disease group were given oral prednisone for three days, while the other half was given a placebo. Blood samples were taken before treatment and after three days of treatment with oral prednisone or placebo. Cellular markers in the blood samples were evaluated using the SurroScan™ microvolume laser scanning cytometry system for multiparameter cellular analysis. Monoclonal antigen-specific antibodies were purchased from commercial vendors and coupled to one of three different fluorophores, Cy5, Cy5.5, and Cy7-APC. Assays were performed to monitor cell counts of more than 200 different cell populations, including granulocytes, eosinophils, monocytes, CD4 and CD8 T cells, B cells, and NK cells. In addition, the relative levels of 49 different cell surface antigens (activation antigens, co-stimulatory molecules, adhesion molecules, antigen receptors, cytokine receptors) on specific cell populations were measured. […] Each fluorophore was measured in a separate detection channel, and images were converted to flow cytometry standard format and analyzed with FlowJo™ cytometry analysis software. […] Following data acquisition, variables were analyzed to assess differences in subject groups before drug administration, as well as changes following drug administration. A total of 713 variables, including cell populations, cell surface antigen expression, and soluble factors, were analyzed. […]
# [4] = tested on: CD62L expression on B cells; assay: CD62L expression on B cells in blood, cytometry, before/after oral prednisone; settings: after three days of oral prednisone; all disease groups; mean pre drug 2998 (505); adjusted p-value < 0.001
# Source text: as §1
# [5] = tested on: monocytes; assay: Monocyte count in blood, cytometry, before/after oral prednisone; settings: after three days of oral prednisone; all disease groups; mean pre drug 369 (121); adjusted p-value < 0.001
# Source text: as §1
# [6] = tested on: HLA class II expression on monocytes; assay: HLA class II expression on monocytes in blood, cytometry, before/after oral prednisone; settings: after three days of oral prednisone, all disease groups, adjusted p-value < 0.001
# Source text: The inventive biomarkers were identified in a study of the effects of oral prednisone on biological markers of allergy and asthma. Eighty subjects were enrolled in the study, 23 with atopic asthma, 28 with allergy alone, 26 with neither allergy nor asthma (healthy controls), and 3 with asthma alone. Allergy was defined by a positive skin prick test. Mild asthma was defined as positive methacholine challenge within the last three months, as well as one or more of documented diagnosis of asthma, history of cough, recurrent wheeze, recurrent difficult breathing, and recurrent chest tightening. Approximately half of the subjects from each disease group were given oral prednisone for three days, while the other half was given a placebo. Blood samples were taken before treatment and after three days of treatment with oral prednisone or placebo. Cellular markers in the blood samples were evaluated using the SurroScan™ microvolume laser scanning cytometry system for multiparameter cellular analysis. Monoclonal antigen-specific antibodies were purchased from commercial vendors and coupled to one of three different fluorophores, Cy5, Cy5.5, and Cy7-APC. Assays were performed to monitor cell counts of more than 200 different cell populations, including granulocytes, eosinophils, monocytes, CD4 and CD8 T cells, B cells, and NK cells. In addition, the relative levels of 49 different cell surface antigens (activation antigens, co-stimulatory molecules, adhesion molecules, antigen receptors, cytokine receptors) on specific cell populations were measured. The prepared antibody-dye reagents were combined into cocktails and incubated with aliquots of whole or red blood cell-lysed blood in the dark at room temperature for 20 minutes. The samples were then diluted with an appropriate buffer and loaded into capillary arrays for analysis. Each fluorophore was measured in a separate detection channel, and images were converted to flow cytometry standard format and analyzed with FlowJo™ cytometry analysis software. Template gates were used to enumerate the cell populations of interest in all of the assays. Following data acquisition, variables were analyzed to assess differences in subject groups before drug administration, as well as changes following drug administration. A total of 713 variables, including cell populations, cell surface antigen expression, and soluble factors, were analyzed. […] Univariate tests were performed on individual variables, and the step-down Bonferroni p-value adjustment method of Holm was employed to control for multiple comparisons. The Bonferroni correction, which reduces the number of false positives, is described above. Univariate tests were performed on the data before and after drug administration for both the drug and placebo groups. In order to determine whether any non-normality of the data affected the tests, both non-parametric tests (sign rank or sign) and parametric paired t-tests were performed. Statistical tests for normality, skewness, and kurtosis were performed per variable to assess normality. For sufficiently normally distributed data, the paired t-test result was used; otherwise, the nonparametric result was used. All p-values were adjusted using the step-down Bonferroni method, maintaining the overall study false positive rate below 5%. […] When the analysis was performed on the separate disease classes individually, no significant differences were found before and after drug administration. Additionally, a linear-mixed model was used to evaluate fixed and random effects for the prednisone and placebo groups. This model notes the difference in response in the drug and placebo to indicate whether the observed trends can be attributed to the drug alone. The model, executed with PROC MIXED in SAS™, used the three fixed effects of drug, time, and (drug×time) to fit the data.
# [7] = tested on: MMP-3; assay: MMP-3 concentration, sandwich ELISA, before/after oral prednisone; settings: after three days of oral prednisone; all disease groups; mean pre drug 37 (29); adjusted p-value < 0.001
# Source text: (§2) The inventive biomarkers were identified in a study of the effects of oral prednisone on biological markers of allergy and asthma. Eighty subjects were enrolled in the study, 23 with atopic asthma, 28 with allergy alone, 26 with neither allergy nor asthma (healthy controls), and 3 with asthma alone. Allergy was defined by a positive skin prick test. Mild asthma was defined as positive methacholine challenge within the last three months, as well as one or more of documented diagnosis of asthma, history of cough, recurrent wheeze, recurrent difficult breathing, and recurrent chest tightening. Approximately half of the subjects from each disease group were given oral prednisone for three days, while the other half was given a placebo. Blood samples were taken before treatment and after three days of treatment with oral prednisone or placebo. […] Finally, the chemiluminescent alkaline phosphatase substrate was added and incubated before reading. Standard curves and analyte amounts were determined using curve fitting techniques. Following data acquisition, variables were analyzed to assess differences in subject groups before drug administration, as well as changes following drug administration. A total of 713 variables, including cell populations, cell surface antigen expression, and soluble factors, were analyzed. […]
# [8] = tested on: SAA; assay: SAA concentration, sandwich ELISA, before/after oral prednisone; settings: after three days of oral prednisone; all disease groups; mean pre drug 2.73 (3.3); adjusted p-value < 0.001
# Source text: as §2
compound,measurement,setting,value
C[C@]12C=CC(=O)C=C1CC[C@@H]1[C@@H]2C(=O)C[C@@]2(C)[C@H]1CC[C@]2(O)C(=O)CO [prednisone],"CD89+ granulocyte population, Mean Post Drug (SD)","[1]; all disease groups (atopic, atopic asthmatic, healthy), mean pre drug 85 (20)",96 (9) % of total granulocytes
same,"CD89 on granulocytes (expression intensity), Mean Post Drug (SD)","[1]; all disease groups, mean pre drug 2047 (1549)",2527 (1691) arbitrary units
same,"CD38+ CD4 T cells, Mean Post Drug (SD)",[2],29.3 (9.1) % of all CD4 T cells
same,"HLA-DQ on B cells (expression intensity), Mean Post Drug (SD)",[3]; mean pre drug 3123 (1090),1680 (817) arbitrary units
same,"HLA-DR on B cells (expression intensity), Mean Post Drug (SD)",[3]; mean pre drug 8108 (2711),4486 (2025) arbitrary units
same,"HLA-PAN on B cells (expression intensity), Mean Post Drug (SD)",[3]; mean pre drug 11684 (3190),6550 (3123) arbitrary units
same,"CD62L on B cells (expression intensity), Mean Post Drug (SD)",[4],2479 (478) arbitrary units
same,"Monocytes (count), Mean Post Drug (SD)",[5],478 (160) cells/μl
same,"HLADQ+ monocyte population, Mean Post Drug (SD)",[6]; mean pre drug 8.7 (4.39),3.6 (2.49) % of total monocytes
same,"HLADR+ monocyte population, Mean Post Drug (SD)",[6]; mean pre drug 84.4 (14.0),75.4 (16.9) % of total monocytes
same,"HLAPAN+ monocyte population, Mean Post Drug (SD)",[6]; mean pre drug 91.8 (8.4),83.0 (15.1) % of total monocytes
same,"HLA-DQ on monocytes (expression intensity), Mean Post Drug (SD)",[6]; mean pre drug 165 (103),69 (52) arbitrary units
same,"HLA-DR on monocytes (expression intensity), Mean Post Drug (SD)",[6]; mean pre drug 2966 (1068),1970 (729) arbitrary units
same,"HLA-PAN on monocytes (expression intensity), Mean Post Drug (SD)",[6]; mean pre drug 4961 (1738),3196 (1046) arbitrary units
same,"MMP-3 concentration, Mean Post Drug (SD)",[7],188 (140) ng/ml
same,"SAA concentration, Mean Post Drug (SD)",[8],6.71 (14.5) μg/ml
